The values below come from ChEMBL document CHEMBL4715692, “Design, synthesis and activity evaluation of novel peptide fusion inhibitors targeting HIV-1 gp41” (Bioorg Med Chem, 2016).

Assay [1] can be described thus: Inhibition of gp41 in HIV1 3B infected in human HeLa-MAGI-CCR5 cells harboring reporter gene comprising HIV1 LTR in the upstream and lacZ gene of Escherichia coli in the downstream assessed as inhibition of cell-cell fusion by optical microscopy analysis. The assay is classed as cell-based. Particulars: Human immunodeficiency virus 1, 3B.
The subject of assay [2] is Human immunodeficiency virus 1. Nature of the assay: Binding affinity to gp41 NHR helix in HIV1 assessed as interaction between compound-gp41 5-helix causing band deviation incubated for 1 hr by SDS-PAGE analysis.
The test system of assay [3] is Human immunodeficiency virus 1. Nature of the assay: Binding affinity to gp41 NHR helix in HIV1 assessed as interaction between compound-gp41 5-helix causing band deviation incubated for 1 hr by native PAGE analysis.
The test system of assay [4] is Human immunodeficiency virus 1. The experiment in a line: Binding affinity to gp41 NHR helix in HIV1 assessed as inhibition of gp41 6-helix conformation incubated for 1 hr by SDS-PAGE analysis.
The test system of assay [5] is Human immunodeficiency virus 1. Nature of the assay: Binding affinity to gp41 NHR helix in HIV1 assessed as inhibition of gp41 6-helix conformation incubated for 1 hr by native PAGE analysis.

Activity calls are given as the source filed them. The calls are words filed in the database; no cut-off is given here. Where a SMILES comes first, the peptide text is derived from it. The star is where a group is joined. X1 = CCCCCCCCCCCCCCC(=O)O* Where only a bound is given, the exact number is not on record here.

As for `CC[C@H](C)[C@H](NC(=O)[C@H](CC(C)C)NC(=O)[C@H](CCC(=O)O)NC(=O)[C@H](CCC(=O)O)NC(=O)[C@@H](NC(=O)[C@H](CCCCN)NC(=O)[C@H](CCCCN)NC(=O)[C@@H](NC(=O)[C@H](Cc1ccc(O)cc1)NC(=O)[C@H](CCCNC(=N)N)NC(=O)[C@H](CCC(=O)O)NC(=O)[C@@H](NC(=O)[C@H](CCC(=O)O)NC(=O)[C@H](CC(=O)O)NC(=O)[C@H](CCCNC(=N)N)NC(=O)[C@H](Cc1c[nH]c2ccccc12)NC(=O)[C@H](CC(=O)O)NC(=O)[C@H](CS)NC(=O)[C@H](Cc1c[nH]c2ccccc12)NC(=O)[C@@H](NC(=O)[C@@H](N)CCSC)[C@@H](C)O)[C@@H](C)CC)[C@@H](C)O)[C@@H](C)CC)C(=O)N[C@@H](CCCNC(=N)N)C(=O)N[C@@H](C)C(=O)N[C@@H](C)C(=O)N[C@@H](CCC(N)=O)C(=O)N[C@@H](CCC(=O)O)C(=O)N[C@@H](CC(C)C)C(=O)N[C@@H](CCC(N)=O)C(=O)N[C@@H](CCC(=O)O)C(=O)N[C@@H](CCCCN)C(=O)N[C@@H](CC(N)=O)C(=O)N[C@@H](CCC(=O)O)C(=O)N[C@@H](C)C(=O)N[C@@H](C)C(=O)N[C@@H](CC(C)C)C(=O)N[C@@H](CCCCN)C(=O)N[C@@H](CCC(=O)O)C(=O)N[C@@H](CC(C)C)C(=O)O`, the IC50 in assay [1] was found to be 159 nM.

As for `CC[C@H](C)[C@H](NC(=O)[C@H](CC(C)C)NC(=O)[C@H](CCC(=O)O)NC(=O)[C@H](CCC(=O)O)NC(=O)[C@@H](NC(=O)[C@H](CCCCN)NC(=O)[C@@H](CCCCN)NC(=O)[C@@H](NC(=O)[C@H](Cc1ccc(O)cc1)NC(=O)[C@H](CCCNC(=N)N)NC(=O)[C@H](CCC(=O)O)NC(=O)[C@@H](NC(=O)[C@H](CCC(=O)O)NC(=O)[C@H](CC(=O)O)NC(=O)[C@H](CCCNC(=N)N)NC(=O)[C@H](Cc1c[nH]c2ccccc12)NC(=O)[C@H](CC(=O)O)NC(=O)[C@H](CS)NC(=O)[C@H](Cc1c[nH]c2ccccc12)NC(=O)[C@@H](NC(=O)[C@@H](N)CCSC)[C@@H](C)O)[C@@H](C)CC)[C@@H](C)O)[C@@H](C)CC)C(=O)N[C@@H](CCCNC(=N)N)C(=O)N[C@@H](C)C(=O)N[C@@H](C)C(=O)N[C@@H](CCC(N)=O)C(=O)N[C@@H](CCC(=O)O)C(=O)N[C@@H](CC(C)C)C(=O)N[C@@H](CCC(N)=O)C(=O)N[C@@H](CCC(=O)O)C(=O)N[C@@H](CCCCN)C(=O)N[C@@H](CC(N)=O)C(=O)N[C@@H](CCC(=O)O)C(=O)N[C@@H](C)C(=O)N[C@@H](C)C(=O)N[C@@H](CC(C)C)C(=O)N[C@@H](CCCCN)C(=O)N[C@@H](CCC(=O)O)C(=O)N[C@@H](CC(C)C)C(=O)O`, in assay [1], the 50% inhibitory concentration (IC50) is 57.2 nM. As for `CCCCCCCCCCCCCCC(=O)OC(=O)[C@H](CCC(N)=O)NC(=O)[C@H](CCC(N)=O)NC(=O)[C@H](CCCNC(=N)N)NC(=O)[C@H](CCC(N)=O)NC(=O)[C@H](C)NC(=O)[C@H](CC(=O)O)NC(=O)[C@H](CCCCN)NC(=O)[C@@H](NC(=O)[C@H](CC(C)C)NC(=O)[C@H](C)NC(=O)[C@H](CCC(=O)O)NC(=O)[C@@H](NC(=O)[C@H](CC(N)=O)NC(=O)[C@H](CCCNC(=N)N)NC(=O)[C@@H](NC(=O)[C@H](Cc1ccc(O)cc1)NC(=O)[C@H](CC(N)=O)NC(=O)[C@H](CCC(=O)O)NC(=O)[C@@H](NC(=O)[C@H](CCC(=O)O)NC(=O)[C@H](CCCNC(=N)N)NC(=O)[C@H](CC(=O)O)NC(=O)[C@H](Cc1c[nH]c2ccccc12)NC(=O)[C@H](CCC(N)=O)NC(=O)[C@H](CCC(=O)O)NC(=O)[C@H](Cc1c[nH]c2ccccc12)NC(=O)[C@@H](NC(=O)[C@H](CCCCN)NC(=O)[C@H](CC(N)=O)NC(=O)[C@H](CC(N)=O)NC(=O)[C@H](Cc1c[nH]c2ccccc12)NC(=O)[C@H](CCC(=O)O)NC(=O)[C@@H](N)CCC(N)=O)[C@@H](C)O)[C@@H](C)CC)C(C)C)[C@@H](C)CC)[C@@H](C)CC` (H-QEWNNKTWEQWDREIENYVRNIEALIKDAQRQQ-X1), the IC50 in assay [1] was 222 nM. Take “H-MTWCDWRDEIERYTKKIEELIRAAQEWQEKNEAALKEL-OH”: the outcome in assay [2] and in assay [3] was Active. Moreover, the IC50 in assay [1] is 53 nM. The inhibition entry in assay [4] and in assay [5] was “Active” throughout. As for H-QEWNNKTWEQWDREIENYVRNIEALIKDAQRQQ-OH, in assay [1], the 50% inhibitory concentration (IC50) turned out to be 866 nM.

As for “H-RAWVAWRNKIDRYTKKIEELIRELIRAAQELQEKNEAALKEL-OH”, in assay [1], the IC50 was 338 nM. Same read-out and setting: the figure for “H-RAWVAWRNKIENYTRRIEELIEELIRRSQEQERRQ-OH” is > 2430 nM. Regarding “H-SIWNNMTWCDWRDEIEEYTKKIEELIKKSQEQASWNWF-OH”, in assay [1], the concentration for half-maximal inhibition (IC50) is 203 nM. Same read-out and setting: the result for H-VEWNARAWVAWRNRIENYAKKIEKLIRQSQEQQ-OH reads 1000 nM.
